From US20240083921A1, “BORATE DERIVATIVE AND USES THEREOF” (Reistone Biopharma Company Limited, priority 2020, published 2024)
Like-named read-outs stand apart in the source and are kept apart here. Blank lines part the entries; values can stand above or below the compound they belong to.

Columns and labels:
[1] = test system: TNF-α release from peripheral blood mononuclear cells (PBMCs); test: Inhibition of pro-inflammatory cytokine (TNF-α) release from LPS-stimulated PBMCs, ELISA; type: cell-based; conditions: LPS 0.1 ng/ml, 24 hours
From the text: Test Example 2 Inhibitory Effect of Compounds on the Release of Pro-Inflammatory Cytokines from Peripheral Blood Mononuclear Cells (PBMCs)
Frozen PBMCs were thawed and detected by Trypan blue staining for cell viability and number. The thawed PBMCs were washed with RPMI1640 complete medium (RPMI1640+10% FBS+1% PS) and centrifuged, and the supernatant was discarded. The PBMCs were resuspended with RPMI1640 complete medium and the cell density was adjusted to 2×10^6 cells/mL. 2×10^5 PBMC cells were plated in a 96-well cell culture plate, and the compounds to be tested were added at different concentrations, in a 1:5 serial dilution of 9 concentrations starting from a maximum compound concentration of 100 μM, each in duplicate. LPS was added at a final concentration of 0.1 ng/ml, making a total volume of 200 μL. For the negative and positive controls, only LPS and DMSO were added to the negative control well, while 1 μg/mL of dexamethasone was added to the positive control well in addition to cells and LPS as. The cells were incubated in an incubator at 37° C. for 24 hours. After completion of the incubation, 100 μL of cell culture supernatant was collected and detected by ELISA for the TNF-α level. 100 μL of CellTiter-Glo was added to the remaining cells in each well to detect the cell viability level. The IC50 value of inhibition of TNF-α release by the compounds was calculated.
The in vitro inhibition of pro-inflammatory cytokine release of PBMCs by the Examples of the present disclosure was determined by the above test, and the determined IC50 value was shown in Table 2.

[2] = test system: imiquimod-induced psoriasis mouse model; test: Suppression of imiquimod-induced psoriasis in mice (topical ointment); type: in vivo, Balb/c female mice; conditions: for Ratio of spleen weight to body weight Mean / Total clinical score Mean / Erythema score Mean / Scale score Mean / Thickness score Mean: IMQ mice; for Ratio of spleen weight to body weight Mean: Day 7, percentage of spleen to body weight; for Total clinical score Mean: endpoint; for Erythema score Mean / Scale score Mean / Thickness score Mean: scale 0-4; for clinical score at the endpoint (statement): each dose of Compound 12-1; for clinical score at the endpoint (statement) / effect on the ratio of spleen weight to body weight (statement): versus model; for effect on the ratio of spleen weight to body weight (statement): three dose groups of Compound 12-1
From the text: Test Example 4 Experiment of Suppression of Imiquimod-Induced Psoriasis
An appropriate amount of Compound 12-1 was formulated into an ointment with the following components: 0.1% of Compound 12-1, 9% of hexanediol, 78.8% of white petrolatum, 5% of paraffin, 7% of glyceryl mono- and distearate, and 0.1% of […], which were mechanically stirred until an ointment was formed.
1) Model Establishment and Drug Administration
7-Week-old Balb/c female mice were used and the hair on their back in an area of 2 cm×3 cm was shaved the day before the experiment. On Days 1-7 of the experiment, the test compounds were applied on the skin for 6 hours, and then imiquimod (IMQ) ointment (Aldara (5%)) was continuously applied to the back skin of mice for 7 days, so as to establish a mouse model of psoriasis, while the control group was given the same dose of petrolatum ointment. On Days 3, 5 and 7, the severity of skin inflammation was assessed, including measurement of skin thickness, crusting and erythema, scored on a 5-point scale (0-4) respectively. The total score was used to assess the severity of skin inflammation. On Day 7 of the experiment, the spleen was collected and weighed, and the percentage of spleen to body weight was calculated to assess the immunosuppressive effect of the drug.
Normal control group, model control group, low, medium and high dose groups of Compound 12-1 (0.01%, 0.03% and 0.1%), 0.03% Compound 1-1 group, and 0.03% reference Compound A group were set up in this experiment.
The total score of the degree of skin inflammation was the clinical score, the indicators of which were relatively subjective, and higher score indicated more serious disease. The degree of increase in skin thickness was an objective assessment indicator, and more increase in thickness indicated more serious disease. The ratio of spleen weight to body weight was an objective assessment indicator, and smaller ratio of spleen weight to body weight indicated stronger immunosuppressive effect of the drug.

[3] = test system: IL-23 secretion of DC cells differentiated from human mononuclear cells; test: In vitro inhibition of IL-23 secretion of DC cells differentiated from human mononuclear cells, Zymosan stimulation, ELISA; type: cell-based; conditions: Table 3: inhibition of IL-23 secretion of DC cells, Zymosan 200 μg/ml, 24 hours
Protocol: Test Example 3 Experiment of in vitro Inhibition of IL-23 Secretion of DC Cells Differentiated from Human Mononuclear Cells by the Compounds
Day 0: Mononuclear cells were isolated from fresh human peripheral blood and purified and then resuspended in RPMI-1640 complete medium (RPMI-1640+10% FBS+1% P.S.+55 μM 2-Mercaptoethanol). When differentiating into DC cells, IL-4 at a concentration of 50 ng/ml and GM-CSF at 100 ng/ml were added to the medium. The cells were cultured at a density of 1×10^6 cells/mL in a culture dish with a diameter of 100 mm for differentiation in an incubator at 37° C. with a carbon dioxide concentration of 5%. Day 3: Half the volume of RPMI complete medium was replaced with fresh RPMI complete medium while maintaining the concentration of IL-4 at 50 ng/ml and GM-CSF at 100 ng/ml. Day 6: Non-adherent cells (DC cells) in the culture dish were collected and washed with PBS. The washed DC cells were resuspended with RPMI complete medium at a density of 1×10^6 cells/mL. Then. 1×10^5 DC cells were added to each well of the 96-well cell culture plate and pre-incubated with different dilutions of the compounds to be tested (or DMSO blank negative control at equivalent concentration) for 1 hour, followed by addition of 200 μg/ml of the TLR2 agonist Zymosan to stimulate the DC cells for 24 hours. Day 7: After 24 hours of Zymosan stimulation of DC cells. the supernatant in each well of the 96-well plate was collected and detected by ELISA for the concentration of IL-23.
The inhibition of IL-23 secretion of DC cells differentiated from human mononuclear cells by the compounds of the present disclosure was determined by the above test, and the determined IC50 value was shown in Table 3.

PDE4B1 enzyme = PDE4B1 enzyme (Homo sapiens (Human), UniProt Q07343); test: In vitro PDE4B enzyme activity detection test (IMAP FP, FAM-cAMP substrate); type: biochemical; conditions: PDE4B1 0.04 nM, FAM-cAMP 0.1 μM, 25° C. 30 min
Sequence of PDE4B1 enzyme (Q07343 whole entry): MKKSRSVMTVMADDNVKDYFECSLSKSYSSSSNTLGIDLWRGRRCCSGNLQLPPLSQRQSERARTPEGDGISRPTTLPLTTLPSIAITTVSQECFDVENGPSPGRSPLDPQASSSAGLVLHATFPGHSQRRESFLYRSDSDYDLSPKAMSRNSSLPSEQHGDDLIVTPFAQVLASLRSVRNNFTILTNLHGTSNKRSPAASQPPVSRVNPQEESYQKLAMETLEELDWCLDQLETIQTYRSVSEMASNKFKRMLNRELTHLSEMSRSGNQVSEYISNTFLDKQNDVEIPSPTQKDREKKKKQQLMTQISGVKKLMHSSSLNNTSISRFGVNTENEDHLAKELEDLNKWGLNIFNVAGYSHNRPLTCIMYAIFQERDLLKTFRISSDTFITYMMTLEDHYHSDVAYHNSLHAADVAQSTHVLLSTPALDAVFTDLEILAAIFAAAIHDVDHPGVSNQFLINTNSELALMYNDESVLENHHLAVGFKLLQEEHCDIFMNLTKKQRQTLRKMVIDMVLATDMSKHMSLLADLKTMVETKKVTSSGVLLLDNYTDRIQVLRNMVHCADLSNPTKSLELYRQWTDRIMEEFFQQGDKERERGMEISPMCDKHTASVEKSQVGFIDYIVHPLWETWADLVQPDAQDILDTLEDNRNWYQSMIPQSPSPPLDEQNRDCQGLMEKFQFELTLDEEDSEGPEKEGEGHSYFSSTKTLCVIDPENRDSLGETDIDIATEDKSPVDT
Protocol: Test Example 1 In vitro PDE4B Enzyme Activity Detection Test
1. Experimental Materials
First, a stock solution of the compound at a concentration of 10 mM was prepared in a test tube with 90% DMSO (10% water), and it was used to prepare a series of dilutions with a dilution factor of 1:5 and final concentrations starting from 100 μM to as low as 0.05 nM.
0.2 μl of the compound solution was transferred into a 384-well reaction plate, and 0.2 μl of 100% DMSO was transferred into both the negative and positive controls. Then, 10 μl of 2×PDE4B1 enzyme solution (making a final concentration of 0.04 nM) was added to each well, and 10 μl of 1×reaction buffer instead of the enzyme solution was added to the zero enzyme activity control wells. The plate was centrifuged at 1,000 rpm for 1 min and incubated at room temperature for 15 min. Next, 10 μl of 2×FAM-cAMP substrate solution (making a substrate final concentration of 0.1 μM) was added to each well of the 384-well reaction plate. The plate was centrifuged at 1,000 rpm for 1 min and the reaction was carried out at 25° C. for 30 min. After completion of the reaction, 60 μl of reaction stop solution was added to each well of the 384-well reaction plate to terminate the reaction, and the plate was incubated with shaking at 600 rpm on a shaker at room temperature in the dark for 60 min.
After the incubation, the RLU data were read and the inhibition rate was calculated. The IC50 value was calculated from the concentration-inhibition fitted curve, wherein the maximum value refers to the reading of the DMSO control and the minimum value refers to the reading of the zero enzyme activity control.
The in vitro inhibition of PDE4B1 enzyme activity by the Examples of the present disclosure was determined by the above test, and the measured IC50 value was shown in Table 1.

[4] = Compound A 0.03%, Compound 1-1 0.03%

Structure (SMILES): COc1ccc(-c2cncc(C3COB(O)C3)c2)c2c1OC(C)C2 (stereo not drawn) [Compound 2]
IC50 (PDE4B1 enzyme): 4.5 nM

Structure (SMILES): COc1ccc(-c2cccc(C3COB(O)C3)c2)c2c1OC1(CCCC1)C2 (stereo not drawn) [Compound 3]
IC50 (PDE4B1 enzyme): 1.1 nM

Structure (SMILES): COc1ccc(-c2cc(C3COB(O)C3)cnn2)c2c1OC1(CCCC1)C2 (stereo not drawn) [Compound 5]
IC50 ([1]; PBMC): 1.56 nM

Structure (SMILES): COc1ccc(-c2cncc(C3COB(O)C3)c2)c2c1OC(C)(C)CO2 (stereo not drawn) [Compound 8]
IC50 ([1]; PBMC): 0.74 nM

Structure (SMILES): COc1ccc(-c2cncc([C@@H]3COB(O)C3)n2)c2c1OC(C)(C)CC2 [Compound 12-1]
IC50 ([1]; PBMC): 0.055 nM | Ratio of spleen weight to body weight Mean ([2]; 0.01% applied on skin): 0.64 | Total clinical score Mean ([2]; 0.01% applied on skin): 9.5 | Erythema score Mean ([2]; 0.01% applied on skin): 4 | Scale score Mean ([2]; 0.01% applied on skin): 3.13 | Thickness score Mean ([2]; 0.01% applied on skin): 2.38 | Ratio of spleen weight to body weight Mean ([2]; 0.03% applied on skin): 0.43 | Total clinical score Mean ([2]; 0.03% applied on skin): 7.57 | Erythema score Mean ([2]; 0.03% applied on skin): 3.86 | Scale score Mean ([2]; 0.03% applied on skin): 2.14 | Thickness score Mean ([2]; 0.03% applied on skin): 1.57 | Ratio of spleen weight to body weight Mean ([2]; 0.1% applied on skin): 0.31 | Total clinical score Mean ([2]; 0.1% applied on skin): 6.75 | Erythema score Mean ([2]; 0.1% applied on skin): 3.63 | Scale score Mean ([2]; 0.1% applied on skin): 1.38 | Thickness score Mean ([2]; 0.1% applied on skin): 1.75 | IC50 ([3]; Homo sapiens, PBMC): 0.018 nM

Structure (SMILES): O=C(Nc1c(Cl)cncc1Cl)c1ccc(OC(F)F)c(OCC2CC2)c1 [Roflumilast, reference compound]
IC50 ([3]; Homo sapiens, PBMC): 12.9 nM

The remaining compounds from weak to strong by IC50 (PDE4B1 enzyme), led by results:

IC50 (PDE4B1 enzyme): 0.41 nM
Structure (SMILES): COc1ccc(-c2cncc(C3COB(O)C3)c2)c2c1OC(C)(C)C2 (stereo not drawn) [Compound 6]
IC50 ([1]; PBMC): 1.56 nM

IC50 (PDE4B1 enzyme): 0.4 nM
Structure (SMILES): COc1ccc(-c2cncc([C@H]3COB(O)C3)c2)c2c1OC1(CCCC1)C2 [Compound 1-2]
IC50 ([1]; read-out: PBMC IC50): 3.26 nM

IC50 ([3]; Homo sapiens, PBMC): 0.61 nM | IC50 (PDE4B1 enzyme): 0.3 nM
Structure (SMILES): CCCOc1cc(-c2cncc([C@@H]3COB(O)C3)c2)ccc1OC [Compound A, reference compound]
IC50 ([1]; PBMC): 1.16 nM | Ratio of spleen weight to body weight Mean ([2]; 0.03% applied on skin): 0.96 | Total clinical score Mean ([2]; 0.03% applied on skin): 8.33 | Erythema score Mean ([2]; 0.03% applied on skin): 3.33 | Scale score Mean ([2]; 0.03% applied on skin): 2.5 | Thickness score Mean ([2]; 0.03% applied on skin): 2.5 | clinical score at the endpoint (statement) [2, 4]: significantly reduce the clinical score | effect on the ratio of spleen weight to body weight (statement) [2, 4]: no significant effect | increase of skin thickness (statement) ([2]; low and high dose groups of Compound 12-1 (0.01%, 0.1%), Compound A 0.03%): no significant effect

IC50 (PDE4B1 enzyme): 0.25 nM
Structure (SMILES): COc1ccc(-c2cncc(C3COB(O)C3)c2)c2c1OC(C)(C)CC2 (stereo not drawn) [Compound 9]
IC50 ([1]; PBMC): 0.3 nM

IC50 (PDE4B1 enzyme): 0.16 nM
Structure (SMILES): COc1ccc(-c2cncc(C3COB(O)C3)c2)c2ccc(C(F)(F)F)nc12 (stereo not drawn) [Compound 10]
IC50 ([1]; PBMC): 0.9 nM

IC50 ([3]; read-out: PBMC IC50): 0.12 nM | IC50 (PDE4B1 enzyme): 0.11 nM
Structure (SMILES): COc1ccc(-c2cncc([C@@H]3COB(O)C3)c2)c2c1OC1(CCCC1)C2 [Compound 1-1]
IC50 ([1]; read-out: PBMC IC50): 0.32 nM | Ratio of spleen weight to body weight Mean ([2]; 0.03% applied on skin): 0.63 | Total clinical score Mean ([2]; 0.03% applied on skin): 8.5 | Erythema score Mean ([2]; 0.03% applied on skin): 3.63 | Scale score Mean ([2]; 0.03% applied on skin): 2.75 | Thickness score Mean ([2]; 0.03% applied on skin): 2.13 | single item scores (statement) ([2]; Compound 1-1 0.03%, each dose group of Compound 12-1): mainly improve scab and reduce skin thickness | clinical score at the endpoint (statement) [2, 4]: significantly reduce the clinical score | effect on the ratio of spleen weight to body weight (statement) [2, 4]: significantly reduce the ratio of spleen weight to body weight | effect on the ratio of spleen weight to body weight compared with Compound A ([2]; same dose (0.03%)): significantly different from that of Compound A

IC50 (PDE4B1 enzyme): 0.083 nM
Structure (SMILES): COc1ccc(-c2cncc(C3COB(O)C3)n2)c2c1OC1(CCCC1)C2 (stereo not drawn) [Compound 4]
IC50 ([1]; PBMC): 2.15 nM

IC50 (PDE4B1 enzyme): 0.055 nM
Structure (SMILES): COc1ccc(-c2cncc(C3COB(O)C3)c2)c2cc(C(F)(F)F)nn12 (stereo not drawn) [Compound 7]
IC50 ([1]; PBMC): 0.36 nM
